Molecules are shown by their SMILES. Read-outs that look alike come from different tables or passages of the source.

The test system of data set [1] is dizocilpine-induced prepulse inhibition deficits. The conditions noted are these: mouse, with D-serine exposure enhancement; cited from earlier work.
For data set [2] the following is noted: cited from earlier work; for susceptibility to glucuronidation (in words): liver microsomes with UDPGA, 60 min. For orientation: Microsomes from liver hold many membrane-bound enzymes, among them those of drug oxidation.
The conditions of data set [3]: mice; cited from earlier work.
Data set [4] deals with plasma D-serine levels. Particulars: mice, oral co-administration with D-serine; cited from earlier work.
A short description of data set [5]: Metabolic stability in mouse liver microsomes. Type of data set: in vitro ADME. The conditions noted are these: for susceptibility to glucuronidation (in words): liver microsomes with UDPGA; for stability in the presence of NADPH (in words): mouse liver microsomes.
Data set [6] can be described thus: Binding to mouse plasma protein. Type of data set: in vitro ADME.
Data set [7] deals with plasma D-serine levels. The experiment in a line: Effect on D-serine plasma pharmacokinetics after oral co-administration in mice. Type of data set: in vivo. The conditions noted are these: inhibitor and D-serine both 30 mg/kg po.
Data set [8] can be described thus: Plasma pharmacokinetics after oral administration in mice. Particulars: 30 mg/kg po.
A further data set deals with recombinant human DAAO (Homo sapiens, UniProt P14920). The data set is described as follows: Inhibition of recombinant human DAAO. Type of data set: biochemical. The conditions noted are these: human DAAO IC50 ratio.
Chain of recombinant human DAAO (P14920 whole entry): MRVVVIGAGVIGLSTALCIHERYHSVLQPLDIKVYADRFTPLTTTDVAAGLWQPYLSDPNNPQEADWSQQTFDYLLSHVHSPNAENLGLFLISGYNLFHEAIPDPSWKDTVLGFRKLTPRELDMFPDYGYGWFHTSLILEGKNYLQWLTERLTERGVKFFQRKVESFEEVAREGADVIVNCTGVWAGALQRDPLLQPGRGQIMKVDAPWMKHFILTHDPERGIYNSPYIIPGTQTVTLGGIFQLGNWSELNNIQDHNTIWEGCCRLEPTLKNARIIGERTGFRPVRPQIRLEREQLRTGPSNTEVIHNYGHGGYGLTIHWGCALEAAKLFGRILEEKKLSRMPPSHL

Consider `O=c1[nH]oc2cc(Cl)ccc12` [CBIO, 6-chloro-1,2-benzisoxazol-3(2H)-one], for which, in data set [1], the “effect on dizocilpine-induced prepulse inhibition deficits” value is recorded as “attenuation”.

In the case of `O=c1cc(CSc2ccc(Cl)c(Cl)c2)occ1O` [Compound 1], the “susceptibility to glucuronidation (in words)” value (“susceptibility” below) in data set [2] is “extensively glucuronidated”. Moreover, the “% remaining after 60 min w/UDPGA” value in data set [2] (mouse liver microsomes) was 5%.

For the molecule `O=c1[nH]nc(CCc2cc(F)cc(F)c2)cc1O` [Compound 2b], the “susceptibility” value in [2] was “some degree of metabolic stability”. Further, in data set [2] (mouse liver microsomes, NADPH), the “% remaining after 60 min w/NADPH” value is 92%. Moreover, the “% remaining after 60 min w/UDPGA” value in data set [2] (mouse liver microsomes) is 59%.

For the molecule `O=c1[nH]c(=O)n(Cc2cccc3ccccc23)nc1O` [Compound 3], the “susceptibility” value in data set [2] is “complete resistance to glucuronidation”. Also, the “AUC following oral administration” value in data set [3] was 12900 ng·h/mL. Moreover, in the data set on plasma D-serine levels [4], the “degree of enhancement in plasma D-serine levels” value is recorded as 2.2 fold.

Consider `O=c1[nH]nc(CCc2ccccc2)nc1O` [Compound 6b, 6-hydroxy-3-phenethyl-1,2,4-triazin-5(2H)-one], for which, in data set [5], the “susceptibility” value is “resistant to glucuronidation” and the “stability in the presence of NADPH (in words)” value was “stable”. Moreover, the “binding to mouse plasma protein” value in data set [6] was 74%. Also, in the data set with plasma D-serine levels [7], the “D-serine AUC0–6hr on co-administration” value was determined as 74.2 µg·h/mL. Further, in data set [8], the “time of Cmax after administration” value stood at 30 min.

As for `O=c1[nH]nc(SCc2ccc(-c3ccccc3)cc2)nc1O` [Compound 6j], the “fold more potent than the corresponding meta-phenyl derivative 6k” value at recombinant human DAAO is on record as 8 fold.

With `O=c1[nH]nc(SCc2ccc3cc(F)ccc3c2)nc1O` [Compound 6m, 3-((6-fluoronaphthalen-2-yl)methylthio)-6-hydroxy-1,2,4-triazin-5(2H)-one], in data set [5], the “susceptibility” value is “resistant to glucuronidation” and the “stability in the presence of NADPH (in words)” value was “stable”.

Source of the values: paper PMC4816084 (Bioorganic & medicinal chemistry letters, 2016).
